Our source for the change in vivo values is patent publication US20150289512A1, “METHOD FOR PROMOTING PLANT GROWTH” (SUMITOMO CHEMICAL COMPANY, LIMITED, priority 2012, published 2015).

Assay [1] relates to Rice (variety: Nipponbare). As to the kind of experiment: Test Example 2: promotion of root growth by hydroponics of rice, 1 ppm. It is filed as in vivo. The note with it: Oryza sativa, hydroponic solution containing the test compound at 1 ppm, average of 4 or 5 individuals, read-out: Relative value of length of seminal root (%-untreated control plot). An outline of the steps:
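Surface-sterilized Nipponbare seeds germinated 3 days in dark at 28° C in ¼ Hoagland solution with compound at 1 ppm (DMSO 1/10,000; DMSO-only control), then grown hydroponically 3 days at 26° C, 4,000 lux, 16 h day. Seminal root length averaged over 4–5 plants.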

For assay [2], the system named is Rice (variety: Nipponbare). As to the kind of experiment: Test Example 1: promotion of root growth by hydroponics of rice, 10 ppm. It is filed as in vivo. The note with it: Oryza sativa, hydroponic solution containing the test compound at 10 ppm, average of 4 or 5 individuals, read-out: Relative value of length of seminal root (%-untreated control plot). An outline of the steps:
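Surface-sterilised seeds germinated 3 days in the dark at 28° C in hydroponic solution with compound at 10 ppm, then grown 3 days hydroponically with compound at 10 ppm (26° C, 4,000 lux, 16 h day, 50% humidity). Seminal root length measured by image analysis, averaged over 4 or 5 plants per plot.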

On to `O=C(NCc1ccccc1)c1cc2cc(C(F)(F)F)ccc2o1` [Compound 54], for which the change in vivo at 1 ppm in assay [1] was over 5%. In assay [2], the change in vivo at 10 ppm was over 5%.

For `COC(=O)c1oc2ccc(C(F)(F)F)cc2c1O` [Compound 50], in assay [1], the change in vivo at 1 ppm was over 5%. For the same compound, the change in vivo at 10 ppm in assay [2] is over 5%.

For `COC(=O)c1oc2ccc(C(F)(F)F)cc2c1N(C)C` [Compound 62], the change in vivo at 1 ppm in assay [1] was over 5%. Further, the change in vivo at 10 ppm in assay [2] was over 5%. As for `NC(=O)c1cc2cc(C(F)(F)F)ccc2o1` [Compound 51], the change in vivo at 1 ppm in assay [1] was over 5%. In assay [2], the change in vivo at 10 ppm was over 5%. As for `COC(=O)c1oc2ccccc2c1NC(=O)C(F)(F)F` [Compound 39], the change in vivo at 10 ppm in assay [2] is over 5%. As for `O=C(Nc1ccccc1)c1cc2cc(C(F)(F)F)ccc2o1` [Compound 53], the change in vivo at 1 ppm in assay [1] was over 5%. Besides, the change in vivo at 10 ppm in assay [2] is over 5%.

In the case of `Cc1c(C(=O)O)oc2ccccc12` [Compound 36], the change in vivo at 1 ppm in assay [1] is over 5%. In addition, in assay [2], the change in vivo at 10 ppm was over 5%. Regarding `COC(=O)c1cc2ccccc2o1` [Compound 1], the change in vivo at 1 ppm in assay [1] is over 5%. For `COC(=O)c1oc2ccc(C(F)(F)F)cc2c1NS(C)(=O)=O` [Compound 67], the change in vivo at 1 ppm in assay [1] was over 5%. For the same compound, the change in vivo at 10 ppm in assay [2] is over 5%. Consider `O=C(O)c1oc2ccc(C(F)(F)F)cc2c1C(F)(F)F` [Compound 69], for which the change in vivo at 1 ppm in assay [1] was over 5%. Also, the change in vivo at 10 ppm in assay [2] is over 5%. Take `O=C(O)c1cc2c(C(F)(F)F)cccc2o1` [Compound 43]: in assay [1], the change in vivo at 1 ppm is over 5%. In addition, the change in vivo at 10 ppm in assay [2] was over 5%. As to `COC(=O)c1oc2ccc(C(F)(F)F)cc2c1NC(C)=O` [Compound 63], the change in vivo at 1 ppm in assay [1] is over 5%. Moreover, the change in vivo at 10 ppm in assay [2] is over 5%.

As for `COC(=O)c1oc2ccccc2c1N(C(C)=O)C(C)=O` [Compound 41], the change in vivo at 1 ppm in assay [1] was over 5%. Same read-out and setting: the same measure for `O=C(NCc1ccccc1)c1oc2ccc(C(F)(F)F)cc2c1C(F)(F)F` [Compound 77]: over 5%. Take `CNC(=O)c1cc2cc(C(F)(F)F)ccc2o1` [Compound 52]: the change in vivo at 1 ppm in assay [1] is over 5%. In addition, the change in vivo at 10 ppm in assay [2] is over 5%.

Consider `COC(=O)c1oc2ccccc2c1NC(C)=O` [Compound 40], for which the change in vivo at 1 ppm in assay [1] was over 5%. The change in vivo at 10 ppm in assay [2] was over 5%. Consider `COC(=O)c1oc2ccc(C(F)(F)F)cc2c1NC(=O)C(F)(F)F` [Compound 65], for which, in assay [1], the change in vivo at 1 ppm was over 5%. `COC(=O)c1oc2ccc(C(F)(F)F)cc2c1C(F)(F)F` [Compound 70]: the change in vivo at 1 ppm in assay [1] was over 5%. As for `O=C(O)c1nc2c(F)cc(F)cc2s1` [Compound 86], the change in vivo at 1 ppm in assay [1] is over 5%. The change in vivo at 10 ppm in assay [2] is over 5%. For the compound `NC(=O)c1oc2ccccc2c1C(F)(F)F` [Compound 85], in assay [1], the change in vivo at 1 ppm is over 5%. In assay [2], the change in vivo at 10 ppm is over 5%. As for `CCOC(=O)c1oc2ccc(C(F)(F)F)cc2c1C(F)(F)F` [Compound 71], the change in vivo at 10 ppm in assay [2] is over 5%. Regarding `COC(=O)c1cc2cc(C(F)(F)F)ccc2o1` [Compound 3, methyl 5-(trifluoromethyl)benzofuran-2-carboxylate], the change in vivo at 1 ppm in assay [1] is over 5%.

Regarding `COC(=O)c1oc2ccc(C(F)(F)F)cc2c1NS(=O)(=O)c1ccccc1` [Compound 68], in assay [1], the change in vivo at 1 ppm is over 5%. Moreover, the change in vivo at 10 ppm in assay [2] was over 5%. As to `COC(=O)c1cc2c(C(F)(F)F)cccc2o1` [Compound 45], in assay [1], the change in vivo at 1 ppm was over 5%. Regarding `Cc1c(C(=O)O)oc2ccc(C(F)(F)F)cc12` [Compound 34], the change in vivo at 1 ppm in assay [1] is over 5%. As to `O=C(Oc1ccccc1)c1cc2cc(C(F)(F)F)ccc2o1` [Compound 55], the change in vivo at 1 ppm in assay [1] is over 5%. In addition, the change in vivo at 10 ppm in assay [2] was over 5%. As for `O=C(OCc1ccccc1)c1cc2cc(C(F)(F)F)ccc2o1` [Compound 56], the change in vivo at 1 ppm in assay [1] was over 5%. Besides, the change in vivo at 10 ppm in assay [2] is over 5%. On to `CCOC(=O)c1cc2c(C(F)(F)F)cccc2o1` [Compound 44], for which the change in vivo at 1 ppm in assay [1] is over 5%. Also, the change in vivo at 10 ppm in assay [2] is over 5%. For `CNC(=O)c1oc2ccc(C(F)(F)F)cc2c1C(F)(F)F` [Compound 75], the change in vivo at 1 ppm in assay [1] is over 5%. For the same compound, in assay [2], the change in vivo at 10 ppm was over 5%. Turning to `COC(=O)c1nc2cc(C(F)(F)F)ccc2o1` [Compound 17, methyl 5-trifluoromethylbenzoxazole-2-carboxylate], the change in vivo at 1 ppm in assay [1] is over 5%. As for `COC(=O)c1oc2ccc(C(F)(F)F)cc2c1C` [Compound 33], in assay [1], the change in vivo at 1 ppm is over 5%. Moreover, the change in vivo at 10 ppm in assay [2] is over 5%.

For `COC(=O)c1oc2ccccc2c1C(F)(F)F` [Compound 83], the change in vivo at 1 ppm in assay [1] was over 5%. As for `O=C(OCc1ccccc1)c1oc2ccc(C(F)(F)F)cc2c1C(F)(F)F` [Compound 73], the change in vivo at 1 ppm in assay [1] is over 5%. As to `O=C(O)c1oc2ccccc2c1C(F)(F)F` [Compound 82], in assay [1], the change in vivo at 1 ppm was over 5%. The change in vivo at 10 ppm in assay [2] was over 5%. Turning to `O=C(Nc1ccccc1)c1oc2ccc(C(F)(F)F)cc2c1C(F)(F)F` [Compound 76], in assay [1], the change in vivo at 1 ppm is over 5%. For the same compound, in assay [2], the change in vivo at 10 ppm is over 5%.

Take `COC(=O)c1oc2ccccc2c1C` [Compound 37]: the change in vivo at 1 ppm in assay [1] was over 5%. Moreover, the change in vivo at 10 ppm in assay [2] was over 5%.

In the case of `NC(=O)c1oc2ccc(C(F)(F)F)cc2c1C(F)(F)F` [Compound 74], the change in vivo at 1 ppm in assay [1] was over 5%. Further, in assay [2], the change in vivo at 10 ppm is over 5%. As to `CCOC(=O)c1oc2cccc(O)c2c1C` [Compound 80], the change in vivo at 1 ppm in assay [1] is over 5%. Further, the change in vivo at 10 ppm in assay [2] was over 5%.
